One data set deals with Liver. As to the kind of experiment: Metabolic stability in mouse liver microsomes per mg of protein at 3 uM after 10 mins. The class given is ADME, Microsome. On the technique in general: Liver microsomes are vesicles of endoplasmic reticulum, rich in cytochrome P450 enzymes.
The test system of another data set is Liver microsomes. Briefly: Metabolic stability in human liver microsomes per mg of protein at 3 uM after 10 mins. The format is ADME, Microsome.
Data set [1] in a line: Cmax in mouse at 50 mg/kg, po. The class given is ADME, organism-based. Also noted: dose 50 mg/kg, route oral. To be noted: in vivo.
Data set [2] can be described thus: AUC (0 to 4 hrs) in mouse at 50 mg/kg, po. The class given is ADME, organism-based. Also noted: time < 4 hr, dose 50 mg/kg, route oral. As to conditions: plasma.
The nature of data set [3]: Tmax in mouse at 50 mg/kg, po. The format is ADME, organism-based. As to conditions: in vivo. Also noted: dose 50 mg/kg, route oral.

As usually defined, the Cmax is the highest concentration seen after dosing. As usually defined, the AUC(0-t) is the area under the concentration-time curve up to a stated or last time point. A low value points to less exposure. The Tmax is the time at which the peak concentration occurs. Take `CC(C)c1c(-c2nnc(OC3CCNCC3)o2)cn2ncnc(Nc3cc(C(=O)NC4CC4)c(F)cc3F)c12`: the Stability in the data set on Liver is reported as 0.007 nmol/min/mg; in the data set on Liver microsomes, 0.023 nmol/min/mg. In data set [1], this compound displayed a Cmax of 15 µM. Also, in data set [2], the AUC(0-t) at 4 h turned out to be 53.2 µM·h. The Tmax in data set [3] was 4 h.

`CC(C)c1c(-c2nnc(NCCCCN)o2)cn2ncnc(Nc3cc(C(=O)NC4CC4)c(F)cc3F)c12`: the figures for the Stability with Liver and in the data set with Liver microsomes were 0 nmol/min/mg and 0.012 nmol/min/mg, respectively. This compound showed a Cmax in data set [1] of 0.1 µM. This compound also yielded an AUC(0-t) at 4 h in data set [2] of 0.2 µM·h. The Tmax in data set [3] turned out to be 0.5 h.

As for `CC(C)c1c(-c2nnc(NCCCN(C)C)o2)cn2ncnc(Nc3cc(C(=O)NC4CC4)c(F)cc3F)c12`, the Stability is 0.02 nmol/min/mg in the data set with Liver and 0.098 nmol/min/mg with Liver microsomes. The compound also registered a Cmax in data set [1] of 8 µM. Also, in data set [2], the AUC(0-t) at 4 h turned out to be 21.7 µM·h. Moreover, the Tmax in data set [3] was found to be 1 h.
